Assay results from patent US20100286038A1, “FORMULATION CONTAINING CYCLIN-DEPENDENT KINASE INHIBITING COMPOUND AND METHOD OF TREATING TUMORS USING THE SAME” (priority 2007, published 2010).
Where two headings read alike, the source gives them in different places.

Conditions: for AUC / CL / Cmax / t1/2: Table V; for AUC / CL / Cmax / t1/2 / AUC(tf) Mean / Cmax Mean / Tmax Median / tf Median / AUC(I) Mean / CL Mean / t½ Mean: 2 hour IV infusion; for AUC(tf) Mean / Cmax Mean / Tmax Median / tf Median: Table VI; for AUC(I) Mean / CL Mean / t½ Mean: Table VII
Method: The contents of the IV bag were infused over a two hour period. […] Each patient was dosed on a 28 day cycle, comprising an infusion once a week for the first three weeks of the cycle on days 1, 8, and 15 of each cycle, with no dose administered in the week following the third dose.

Structure (SMILES): CCc1cnn2c(NCc3ccc[n+]([O-])c3)cc(N3CCCC[C@H]3CCO)nc12 [Formula II]
- drug accumulation (1.85 mg/m^2 on days 1, 8, 15 of 28 day cycle): drug accumulation is not evident
- dosage at which plasma levels of 25 nM (10 ng/mL) are available (2-hour infusions): greater than 1.32 mg/m^2
- AUC (0.66 mg/M^2): 32.1 ng·h/mL
- CL (0.66 mg/M^2): 20.6 L/(hr m^2)
- Cmax (0.66 mg/M^2): 18.6 ng/mL
- t1/2 (0.66 mg/M^2): 1.48 h
- Cmax (1.32 mg/M^2): 63.8 ng/mL
- AUC (1.85 mg/M^2): 201.2 (38) ng hr/mL
- CL (1.85 mg/M^2): 10.2 (36) L/(hr m^2)
- Cmax (1.85 mg/M^2): 95.7 (26) ng/mL
- t1/2 (1.85 mg/M^2): 2.29 (45) hours
- AUC (2.59 mg/M^2): 213 (35) ng hr/mL
- CL (2.59 mg/M^2): 12.9 (35) L/(hr m^2)
- t1/2 (2.59 mg/M^2): 3.0 (1) hours
- AUC (3.63 mg/M^2): 423 (91) ng hr/mL
- CL (3.63 mg/M^2): 14.7 (91) L/(hr m^2)
- Cmax (3.63 mg/M^2): 163 (63) ng/mL
- t1/2 (3.63 mg/M^2): 2.56 (38) hours
- AUC (3.7 mg/M^2): 336 ng·h/mL
- CL (3.7 mg/M^2): 11.0 L/(hr m^2)
- Cmax (3.7 mg/M^2): 136 ng/mL
- t1/2 (3.7 mg/M^2): 2.75 h
- AUC (7.4 mg/M^2): 972 ng·h/mL
- CL (7.4 mg/M^2): 7.62 L/(hr m^2)
- Cmax (7.4 mg/M^2): 353 ng/mL
- t1/2 (7.4 mg/M^2): 2.86 h
- AUC (14.8 mg/M^2): 1053 ng·h/mL
- CL (14.8 mg/M^2): 14.1 L/(hr m^2)
- Cmax (14.8 mg/M^2): 396 ng/mL
- t1/2 (14.8 mg/M^2): 2.78 h
- AUC (29.6 mg/M^2): 2434 (45) ng hr/mL
- CL (29.6 mg/M^2): 14.0 (40) L/(hr m^2)
- Cmax (29.6 mg/M^2): 890 (44) ng/mL
- t1/2 (29.6 mg/M^2): 2.98 (11) hours
- AUC (41.4 mg/M^2): 3041 (51) ng hr/mL
- Cmax (41.4 mg/M^2): 1343 (48) ng/mL
- t1/2 (41.4 mg/M^2): 2.80 (29) hours
- CL ([…]^2): 13.1 L/(hr m^2)
- t1/2 ([…]^2): 2.01 h
- AUC(tf) Mean (1.85 mg/m^2, N 1): 134 ng·h/mL
- Cmax Mean (1.85 mg/m^2, N 1): 62.5 ng/mL
- Tmax Median (1.85 mg/m^2, N 1): 1 h
- tf Median (1.85 mg/m^2, N 1): 8 h
- AUC(tf) Mean (3.7 mg/m^2, N 1): 336 ng·h/mL
- Cmax Mean (3.7 mg/m^2, N 1): 136 ng/mL
- Tmax Median (3.7 mg/m^2, N 1): 2 h
- tf Median (3.7 mg/m^2, N 1): 24 h
- AUC(tf) Mean (7.4 mg/m^2, N 1): 970 ng·h/mL
- Cmax Mean (7.4 mg/m^2, N 1): 353 ng/mL
- Tmax Median (7.4 mg/m^2, N 1): 2 h
- tf Median (7.4 mg/m^2, N 1): 24 h
- AUC(tf) Mean (14.8 mg/m^2, N 1): 1050 ng·h/mL
- Cmax Mean (14.8 mg/m^2, N 1): 396 ng/mL
- Tmax Median (14.8 mg/m^2, N 1): 2 h
- tf Median (14.8 mg/m^2, N 1): 24 h
- AUC(tf) Mean (29.6 mg/m^2, N 6): 2040 ng·h/mL
- Cmax Mean (29.6 mg/m^2, N 6): 890 ng/mL
- Tmax Median (29.6 mg/m^2, N 6): 1 h
- tf Median (29.6 mg/m^2, N 6): 24 h
- AUC(tf) Mean (41.4 mg/m^2, N 6): 2870 ng·h/mL
- Cmax Mean (41.4 mg/m^2, N 6): 1300 ng/mL
- Tmax Median (41.4 mg/m^2, N 6): 2 h
- tf Median (41.4 mg/m^2, N 6): 24 h
- AUC(tf) Mean (50 mg/m^2, N 10): 4050 ng·h/mL
- Cmax Mean (50 mg/m^2, N 10): 1820 ng/mL
- Tmax Median (50 mg/m^2, N 10): 1.5 h
- tf Median (50 mg/m^2, N 10): 24 h
- AUC(tf) Mean (58 mg/m^2, N 3): 3290 ng·h/mL
- Cmax Mean (58 mg/m^2, N 3): 1460 ng/mL
- Tmax Median (58 mg/m^2, N 3): 1 h
- tf Median (58 mg/m^2, N 3): 24 h
- AUC(I) Mean (1.85 mg/m^2, N 1): 136 ng·h/mL
- CL Mean (1.85 mg/m^2, N 1): 13.6 L/hr/m^2
- t½ Mean (1.85 mg/m^2, N 1): 1.42 h
- AUC(I) Mean (3.7 mg/m^2, N 1): 336 ng·h/mL
- CL Mean (3.7 mg/m^2, N 1): 11.0 L/hr/m^2
- t½ Mean (3.7 mg/m^2, N 1): 2.75 h
- AUC(I) Mean (7.4 mg/m^2, N 1): 972 ng·h/mL
- CL Mean (7.4 mg/m^2, N 1): 7.62 L/hr/m^2
- t½ Mean (7.4 mg/m^2, N 1): 2.86 h
- AUC(I) Mean (14.8 mg/m^2, N 1): 1050 ng·h/mL
- CL Mean (14.8 mg/m^2, N 1): 14.1 L/hr/m^2
- t½ Mean (14.8 mg/m^2, N 1): 2.78 h
- AUC(I) Mean (29.6 mg/m^2, N 5): 2430 ng·h/mL
- CL Mean (29.6 mg/m^2, N 5): 14.0 L/hr/m^2
- t½ Mean (29.6 mg/m^2, n = 4): 2.98 h
- AUC(I) Mean (41.4 mg/m^2, N 6): 2890 ng·h/mL
- CL Mean (41.4 mg/m^2, N 6): 26.8 L/hr/m^2
- t½ Mean (41.4 mg/m^2, N 6): 2.84 h
